The values below come from ChEMBL document CHEMBL1153827, “Novel aminopeptidase N inhibitors derived from antineoplaston AS2-5 (Part II)” (Bioorg Med Chem, 2009).

A word on the IC50: it is the point on the concentration scale where inhibition reaches its midpoint.

SMILES strings stand for the structures.

72 kDa type IV collagenase, sequence (P08253 whole entry): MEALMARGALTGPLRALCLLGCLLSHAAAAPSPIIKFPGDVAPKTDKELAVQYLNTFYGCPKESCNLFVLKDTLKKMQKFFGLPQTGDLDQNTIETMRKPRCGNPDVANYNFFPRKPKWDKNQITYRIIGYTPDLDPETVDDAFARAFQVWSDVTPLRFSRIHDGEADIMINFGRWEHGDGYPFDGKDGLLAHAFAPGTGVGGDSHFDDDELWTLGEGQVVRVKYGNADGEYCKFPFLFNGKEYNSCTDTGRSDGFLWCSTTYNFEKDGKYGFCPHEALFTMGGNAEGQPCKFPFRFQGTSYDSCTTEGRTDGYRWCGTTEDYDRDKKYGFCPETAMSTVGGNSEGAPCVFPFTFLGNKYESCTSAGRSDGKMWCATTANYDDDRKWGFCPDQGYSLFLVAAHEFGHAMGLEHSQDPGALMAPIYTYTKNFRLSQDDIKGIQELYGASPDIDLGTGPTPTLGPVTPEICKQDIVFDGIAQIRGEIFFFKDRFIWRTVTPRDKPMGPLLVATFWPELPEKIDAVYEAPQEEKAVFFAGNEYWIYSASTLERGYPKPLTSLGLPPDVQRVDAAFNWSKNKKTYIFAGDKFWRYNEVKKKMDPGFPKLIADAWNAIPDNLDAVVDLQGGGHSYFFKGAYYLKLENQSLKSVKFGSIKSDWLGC

One test addresses 72 kDa type IV collagenase (Homo sapiens, UniProt P08253). Briefly: Inhibition of MMP2.
Conditions: not given; call rule not given here
As to `COc1ccc(/C=C/C(=O)N[C@@H](CCC(=O)Nc2ccc(Br)cc2)C(=O)Nc2ccc(Br)cc2)cc1OC`, the IC50 entry is on record as “Not Active”.
With `COc1ccc(/C=C/C(=O)N[C@@H](CCC(=O)Nc2cc(F)cc(F)c2)C(=O)Nc2cc(F)cc(F)c2)cc1OC`, the IC50 entry is recorded as “Not Active”.

Staying with this test, now noted: read-out: IC50.
On to `COc1ccc(/C=C/C(=O)N[C@@H](CCC(=O)O)C(=O)Nc2cccc(Cl)c2)cc1OC`, for which the IC50 was determined as 121 µM.
For the compound `COc1ccc(/C=C/C(=O)N[C@@H](CCC(=O)O)C(=O)NCc2ccccc2)cc1OC`, the IC50 worked out at 236 µM.
Take `COc1ccc(/C=C/C(=O)N[C@@H](CCC(=O)O)C(=O)NCC(C)C)cc1OC`: the IC50 came to 256 µM.
For the compound `CCCNC(=O)[C@H](CCC(=O)O)NC(=O)/C=C/c1ccc(OC)c(OC)c1`, the IC50 was found to be 284 µM.
On to `COc1ccc(/C=C/C(=O)N[C@@H](CCC(=O)O)C(=O)Nc2ccc(F)cc2)cc1OC`, for which the IC50 came out at 47.6 µM.
The same measure, in the same setting: next, `COC(=O)C(C)NC(=O)[C@H](CCC(=O)O)NC(=O)/C=C/c1ccc(OC)c(OC)c1` (stereo not given in full): 83.2 µM; `COc1ccc(/C=C/C(=O)N[C@@H](CCC(=O)O)C(=O)Nc2cc(F)cc(F)c2)cc1OC`: 116 µM; `CNC(=O)[C@H](CCC(=O)O)NC(=O)/C=C/c1ccc(OC)c(OC)c1`: 159 µM.
Regarding `COc1ccc(/C=C/C(=O)N[C@@H](CCC(=O)Nc2ccc(F)cc2)C(=O)Nc2ccc(F)cc2)cc1OC`, the IC50 stood at 368 µM.
For the compound `COc1ccc(/C=C/C(=O)N[C@@H](CCC(=O)Nc2ccccc2F)C(=O)Nc2ccccc2F)cc1OC`, the IC50 came out at 471 µM.
Still for that read-out and setting: for `COc1ccc(/C=C/C(=O)N[C@@H](CCC(=O)Nc2ccc(C)cc2)C(=O)Nc2ccc(C)cc2)cc1OC` the value was 398 µM; for `COC(=O)CNC(=O)[C@H](CCC(=O)O)NC(=O)/C=C/c1ccc(OC)c(OC)c1`, 79.6 µM.
On to `CCNC(=O)[C@H](CCC(=O)O)NC(=O)/C=C/c1ccc(OC)c(OC)c1`, for which the IC50 is 211 µM.
As for `COc1ccc(/C=C/C(=O)N[C@@H](CCC(=O)O)C(=O)Nc2ccc(Br)cc2)cc1OC`, the IC50 worked out at 71.2 µM.
Regarding `COc1ccc(/C=C/C(=O)N[C@@H](CCC(=O)O)C(=O)Nc2ccccc2F)cc1OC`, the IC50 turned out to be 71.4 µM.
With `COc1ccc(/C=C/C(=O)N[C@@H](CCC(=O)Nc2ccc(Cl)cc2)C(=O)Nc2ccc(Cl)cc2)cc1OC`, the IC50 turned out to be 471 µM.
Still for that read-out and setting: for `COC(=O)CC(NC(=O)[C@H](CCC(=O)O)NC(=O)/C=C/c1ccc(OC)c(OC)c1)C(=O)OC` (stereo not given in full) the value was 101 µM.
Consider `COC(=O)CC(NC(=O)CC[C@H](NC(=O)/C=C/c1ccc(OC)c(OC)c1)C(=O)NC(CC(=O)OC)C(=O)OC)C(=O)OC` (stereo not given in full), for which the IC50 amounted to 341 µM.
On the same count and under the same terms, next, `COc1ccc(/C=C/C(=O)N[C@@H](CCC(=O)O)C(=O)Nc2ccc(C)cc2)cc1OC`: 37.8 µM; `COC(=O)C(NC(=O)[C@H](CCC(=O)O)NC(=O)/C=C/c1ccc(OC)c(OC)c1)C(C)C` (stereo not given in full): 76.8 µM; `COC(=O)C(Cc1ccc(F)cc1)NC(=O)[C@H](CCC(=O)O)NC(=O)/C=C/c1ccc(OC)c(OC)c1` (stereo not given in full): 76.5 µM.
The same measure, in the same setting: next, `COc1ccc(/C=C/C(=O)N[C@@H](CCC(=O)O)C(=O)Nc2ccc(Cl)cc2)cc1OC`: 59.9 µM; `COc1ccc(/C=C/C(=O)N[C@@H](CCC(=O)O)C(=O)Nc2ccccc2Cl)cc1OC`: 64.3 µM.

In a further test the target is T1, Aminopeptidase N (Sus scrofa, UniProt P15145).
T1 sequence (P15145 whole entry): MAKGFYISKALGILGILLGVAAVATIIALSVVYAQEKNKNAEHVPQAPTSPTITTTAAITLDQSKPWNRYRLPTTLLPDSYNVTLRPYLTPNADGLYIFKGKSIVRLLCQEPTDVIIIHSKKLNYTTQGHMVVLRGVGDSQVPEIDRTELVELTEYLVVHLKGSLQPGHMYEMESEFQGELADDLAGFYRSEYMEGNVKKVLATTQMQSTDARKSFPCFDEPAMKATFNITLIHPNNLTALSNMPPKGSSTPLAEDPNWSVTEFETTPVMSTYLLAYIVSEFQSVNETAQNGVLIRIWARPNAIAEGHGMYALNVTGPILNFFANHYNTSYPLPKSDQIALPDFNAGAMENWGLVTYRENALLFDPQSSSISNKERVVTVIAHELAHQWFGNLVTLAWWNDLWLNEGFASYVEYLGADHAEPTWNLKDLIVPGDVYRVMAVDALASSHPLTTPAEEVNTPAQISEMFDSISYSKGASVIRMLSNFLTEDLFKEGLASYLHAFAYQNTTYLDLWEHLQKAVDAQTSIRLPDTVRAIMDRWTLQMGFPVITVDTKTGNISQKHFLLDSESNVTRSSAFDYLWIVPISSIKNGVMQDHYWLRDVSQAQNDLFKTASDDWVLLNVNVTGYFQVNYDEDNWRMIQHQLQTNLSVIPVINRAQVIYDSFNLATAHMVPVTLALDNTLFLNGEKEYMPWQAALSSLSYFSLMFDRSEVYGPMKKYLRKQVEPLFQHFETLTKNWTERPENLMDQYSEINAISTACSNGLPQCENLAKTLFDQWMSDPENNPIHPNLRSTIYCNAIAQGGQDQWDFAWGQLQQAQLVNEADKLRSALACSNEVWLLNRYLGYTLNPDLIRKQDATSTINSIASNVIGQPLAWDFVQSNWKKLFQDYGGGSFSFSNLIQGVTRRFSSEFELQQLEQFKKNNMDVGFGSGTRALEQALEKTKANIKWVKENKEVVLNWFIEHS
Briefly: Inhibition of pig kidney microsomal aminopeptidase N after 30 mins by UV-VIS spectrophotometry.
Conditions: not given
As for `COc1ccc(/C=C/C(=O)N[C@@H](CCC(=O)Nc2cc(F)cc(F)c2)C(=O)Nc2cc(F)cc(F)c2)cc1OC`, the IC50 result was “Not Active”.

Staying with this test, now noted: read-out: IC50.
Turning to `COc1ccc(/C=C/C(=O)N[C@@H](CCC(=O)Nc2ccc(Br)cc2)C(=O)Nc2ccc(Br)cc2)cc1OC`, the IC50 came to 578 µM.
The same measure, in the same setting: for `COc1ccc(/C=C/C(=O)N[C@@H](CCC(=O)O)C(=O)Nc2cccc(Cl)c2)cc1OC` the value was 80.5 µM.
Take `COc1ccc(/C=C/C(=O)N[C@@H](CCC(=O)O)C(=O)NCc2ccccc2)cc1OC`: the IC50 was 178 µM.
Same read-out and setting: next, `COc1ccc(/C=C/C(=O)N[C@@H](CCC(=O)O)C(=O)NCC(C)C)cc1OC`: 207 µM; `CCCNC(=O)[C@H](CCC(=O)O)NC(=O)/C=C/c1ccc(OC)c(OC)c1`: 237 µM.
Same read-out and setting: next, `COc1ccc(/C=C/C(=O)N[C@@H](CCC(=O)O)C(=O)Nc2ccc(F)cc2)cc1OC`: 23.4 µM; `COC(=O)C(C)NC(=O)[C@H](CCC(=O)O)NC(=O)/C=C/c1ccc(OC)c(OC)c1` (stereo not given in full): 55.1 µM.
Consider `COc1ccc(/C=C/C(=O)N[C@@H](CCC(=O)O)C(=O)Nc2cc(F)cc(F)c2)cc1OC`, for which the IC50 is 98.6 µM.
Same read-out and setting: for `CNC(=O)[C@H](CCC(=O)O)NC(=O)/C=C/c1ccc(OC)c(OC)c1` the value was 126 µM.
Same read-out and setting: next, `COc1ccc(/C=C/C(=O)N[C@@H](CCC(=O)Nc2ccc(F)cc2)C(=O)Nc2ccc(F)cc2)cc1OC`: 371 µM; `COc1ccc(/C=C/C(=O)N[C@@H](CCC(=O)Nc2ccccc2F)C(=O)Nc2ccccc2F)cc1OC`: 405 µM.
Still for that read-out and setting: next, `COc1ccc(/C=C/C(=O)N[C@@H](CCC(=O)Nc2ccc(C)cc2)C(=O)Nc2ccc(C)cc2)cc1OC`: 335 µM; `COC(=O)CNC(=O)[C@H](CCC(=O)O)NC(=O)/C=C/c1ccc(OC)c(OC)c1`: 50.4 µM; `CCNC(=O)[C@H](CCC(=O)O)NC(=O)/C=C/c1ccc(OC)c(OC)c1`: 184 µM.
For the compound `COc1ccc(/C=C/C(=O)N[C@@H](CCC(=O)O)C(=O)Nc2ccc(Br)cc2)cc1OC`, the IC50 came to 58.1 µM.
Turning to `COc1ccc(/C=C/C(=O)N[C@@H](CCC(=O)O)C(=O)Nc2ccccc2F)cc1OC`, the IC50 stood at 56.8 µM.
For `COc1ccc(/C=C/C(=O)N[C@@H](CCC(=O)Nc2ccc(Cl)cc2)C(=O)Nc2ccc(Cl)cc2)cc1OC`, the IC50 worked out at 405 µM.
Still for that read-out and setting: for `COC(=O)CC(NC(=O)[C@H](CCC(=O)O)NC(=O)/C=C/c1ccc(OC)c(OC)c1)C(=O)OC` (stereo not given in full) the value was 60.5 µM; for `COC(=O)CC(NC(=O)CC[C@H](NC(=O)/C=C/c1ccc(OC)c(OC)c1)C(=O)NC(CC(=O)OC)C(=O)OC)C(=O)OC` (stereo not given in full), 213 µM; for `COc1ccc(/C=C/C(=O)N[C@@H](CCC(=O)O)C(=O)Nc2ccc(C)cc2)cc1OC`, 20.7 µM.
On the same count and under the same terms, for `COC(=O)C(NC(=O)[C@H](CCC(=O)O)NC(=O)/C=C/c1ccc(OC)c(OC)c1)C(C)C` (stereo not given in full) the value was 69.2 µM; for `COC(=O)C(Cc1ccc(F)cc1)NC(=O)[C@H](CCC(=O)O)NC(=O)/C=C/c1ccc(OC)c(OC)c1` (stereo not given in full), 43.7 µM; for `COc1ccc(/C=C/C(=O)N[C@@H](CCC(=O)O)C(=O)Nc2ccc(Cl)cc2)cc1OC`, 34.5 µM.
On the same count and under the same terms, next, `COc1ccc(/C=C/C(=O)N[C@@H](CCC(=O)O)C(=O)Nc2ccccc2Cl)cc1OC`: 38.3 µM.
